# Measured values reported in US20200390755A1, “COMPOUND FOR TREATING NERVOUS SYSTEM DISEASES AND USE THEREOF” (SHAANXI MICOT TECHNOLOGY CO., LTD., priority 2018, published 2020).
# How the values were obtained:
# WT mice [1] = test: High-altitude balance beam (5 mm) experiment 2, WT mice; assay type: in vivo, mouse; settings: 5 mg/kg/d intragastric
# Description: (§1) 7-week-old N171-82Q HD male mice were paired with female B6C3F1/J hybrid mice to obtain newborn mice. From 21 days of age, male mice were housed in separate cages. 0.5 cm of mouse tail tissue was removed to extract DNA to determine the genotype of the mouse, such that N171-82Q HD mice and WT mice needed for the experiment were obtained. The mice were randomly divided into WT Vehicle group (normal mice), WT test compound group (administration group of normal mice, 5 mg/kg/d, n=10), HD Vehicle group (blank group of HD mice, n=15), HD test compound group (administration groups 1-5 of HD mice, 5 mg/kg/d, n=10). The test compound was suspended in 1% CMC-Na solution and administered by intragastric administration until the end of the study. The weights of the mice were measured every week. Behavioral tests were performed at 12 weeks, 18 weeks, and 24 weeks of age to investigate motor function. At 20 weeks, 3 samples of tissue from each group were used for western blotting and immunohistochemistry. At 24 weeks, MRI scans were performed. At the end of the study, the effect of the test compound on the mortality of mice was evaluated. The software Sigmaplot 13.0 was used for statistical analysis of the data, and the data of each group was expressed as mean standard error (x±SEM). Behavioral test results were analyzed using two-way (genotype and processing factor) ANOVA and post-ho tests, the comparison and statistics of weight data were performed using two-way (genotype and age) ANOVA of repeated measures, and mortality was counted using Kaplan-Meier method. Other measurement data were analyzed by one-way ANOVA. P<0.05 was considered statistically significant. The motor function of mice was evaluated by the rotarod experiment and three types of balance beam experiments. […] If the time for crossing the beams was greater than 60 seconds, it was recorded as 60 seconds. a square balance beam with a length of 80 cm and a width of 5 mm was place at a height of about 50 cm from the ground. […]
# WT mice [2] = test: High-altitude balance beam (11 mm) experiment 1, WT mice; assay type: in vivo, mouse; settings: 5 mg/kg/d intragastric
# Description: as §1, with “a round” for “a square”, “a diameter” for “a width”, “of 11” for “of 5”
compound,measurement,setting,value
"O=c1cc(-c2ccc(N3CCCCC3)cc2)oc2c(O)c(O)ccc12 [Example 1, 7,8-dihydroxy-2-(4-(piperidin-1-yl)phenyl)-4H-chromen-4-one]","Time for crossing the beams, high-altitude balance beam (5 mm)",WT mice [1]; 12 w,11.64 ± 4.20 s
same,"Time for crossing the beams, high-altitude balance beam (5 mm)",WT mice [1]; 18 w,9.91 ± 3.05 s
same,"Time for crossing the beams, high-altitude balance beam (5 mm)",WT mice [1]; 24 w,14.18 ± 7.07 s
same,"Time for crossing the beams, high-altitude balance beam (11 mm)",WT mice [2]; 12 w,8.18 ± 1.99 s
same,"Time for crossing the beams, high-altitude balance beam (11 mm)",WT mice [2]; 18 w,7.55 ± 2.42 s
same,"Time for crossing the beams, high-altitude balance beam (11 mm)",WT mice [2]; 24 w,8.18 ± 4.29 s
